Laboratory results as given in ChEMBL document CHEMBL6153138, “Discovery of Novel Aromatic Urea-Imidazole Salt Derivatives for Cancer Therapy via Targeting ERK1/2” (J Med Chem, 2025).
Calls of active or inactive are those of the source. No cut-off for these calls is given here.

Experiments:
[1] = Toxicity in female BALB/c mouse assessed as effect ALP level in serum at 25 to 50 mg/kg, po qd measured after 18 days by biochemical analysis; type: organism-based; conditions: in vivo, 432 h, dose 25-50 mg/kg, time 18 day
[2] = molecular target: Mitogen-activated protein kinase; ERK1/ERK2 (Homo sapiens) (UniProt P27361+P28482); assay: Induction of thermal stabilization of ERK1/2 in human MCF7 cells at 10 uM incubated for 3 hrs at 65 to 75 degree C by […] method; type: cell-based
Chain of Mitogen-activated protein kinase; ERK1/ERK2 (Homo sapiens) (P27361 whole entry, looked up): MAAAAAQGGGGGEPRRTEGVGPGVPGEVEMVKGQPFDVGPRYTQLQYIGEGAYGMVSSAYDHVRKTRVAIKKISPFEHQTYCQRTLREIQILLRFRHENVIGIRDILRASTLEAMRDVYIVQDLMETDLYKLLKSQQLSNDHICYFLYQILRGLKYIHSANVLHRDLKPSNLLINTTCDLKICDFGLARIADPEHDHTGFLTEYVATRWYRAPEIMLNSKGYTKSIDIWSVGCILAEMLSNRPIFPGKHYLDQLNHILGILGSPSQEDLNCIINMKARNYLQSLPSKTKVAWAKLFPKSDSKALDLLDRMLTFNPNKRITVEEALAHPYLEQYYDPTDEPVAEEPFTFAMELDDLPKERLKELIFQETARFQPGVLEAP
Chain of Mitogen-activated protein kinase; ERK1/ERK2 (Homo sapiens) (P28482 whole entry, looked up): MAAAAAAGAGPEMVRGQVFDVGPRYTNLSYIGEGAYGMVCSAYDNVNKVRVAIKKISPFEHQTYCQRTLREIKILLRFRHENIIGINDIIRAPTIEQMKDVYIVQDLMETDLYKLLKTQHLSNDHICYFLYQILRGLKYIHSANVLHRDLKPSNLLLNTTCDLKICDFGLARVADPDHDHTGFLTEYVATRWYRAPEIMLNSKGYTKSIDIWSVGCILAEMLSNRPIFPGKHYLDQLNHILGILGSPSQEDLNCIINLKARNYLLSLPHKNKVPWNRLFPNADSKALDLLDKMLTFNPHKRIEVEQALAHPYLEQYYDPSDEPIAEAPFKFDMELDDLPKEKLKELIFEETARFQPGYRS

4T1 [3] = assay: Antitumor activity against mouse 4T1 cells implanted in female BALB/c mouse model assessed as reduction in p-90RSK phosphorylation level at 50 mg/kg, po qd by immunohistochemical analysis; type: functional, organism-based
[4] = molecular target: T1, Ribosomal protein S6 kinase alpha-1 (Homo sapiens, UniProt Q15418); assay: Inhibition of human RSK1 at 10000 nM by DiscoverX KINOMEscan assay relative to control
T1 sequence (Q15418 whole entry): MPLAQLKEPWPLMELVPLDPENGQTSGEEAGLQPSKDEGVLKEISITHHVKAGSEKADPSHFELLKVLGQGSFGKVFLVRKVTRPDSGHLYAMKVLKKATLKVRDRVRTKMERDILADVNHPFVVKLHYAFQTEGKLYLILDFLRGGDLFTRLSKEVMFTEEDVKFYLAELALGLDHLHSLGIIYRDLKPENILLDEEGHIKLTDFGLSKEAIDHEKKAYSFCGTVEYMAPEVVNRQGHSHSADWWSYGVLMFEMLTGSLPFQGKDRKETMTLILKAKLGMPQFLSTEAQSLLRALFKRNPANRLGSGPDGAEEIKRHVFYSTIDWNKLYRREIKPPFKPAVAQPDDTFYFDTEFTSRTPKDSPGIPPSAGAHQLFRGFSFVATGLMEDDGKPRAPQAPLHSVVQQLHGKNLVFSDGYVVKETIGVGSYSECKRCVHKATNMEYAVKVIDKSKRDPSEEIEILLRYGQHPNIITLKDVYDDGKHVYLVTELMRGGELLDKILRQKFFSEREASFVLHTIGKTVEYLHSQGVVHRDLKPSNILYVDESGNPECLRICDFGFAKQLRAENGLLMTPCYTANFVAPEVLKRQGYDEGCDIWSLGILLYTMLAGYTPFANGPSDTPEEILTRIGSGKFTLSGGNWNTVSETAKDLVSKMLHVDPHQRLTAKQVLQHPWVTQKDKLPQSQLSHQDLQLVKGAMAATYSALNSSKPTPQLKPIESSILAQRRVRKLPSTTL

MCF7 [5] = assay: Upregulation of ERK1/2 phosphorylation expression in human MCF7 cells measured after 30 mins to 4 hrs by Western blot analysis; type: functional, cell-based; conditions: dose 0.5-2 µM, time 30-240 min
4T1 [6] = assay: Antitumor activity against mouse 4T1 cells implanted in female BALB/c mouse model assessed as increase in LC3B expression administered as po by immunohistochemical analysis; type: functional, organism-based; conditions: dose 25-50 mg/kg
[7] = Toxicity in female BALB/c mouse assessed as effect TG level in serum at 25 to 50 mg/kg, po qd measured after 18 days by biochemical analysis; type: organism-based; conditions: in vivo, 432 h, dose 25-50 mg/kg, time 18 day
[8] = AUC (0 to infinity) in Sprague-Dawley rat at 1 mg/kg, iv by LC-MS/MS analysis; type: ADME, organism-based; conditions: in vivo
Mitochondrial membrane [9] = assay: Induction of mitochondrial membrane potential loss in human MCF7 cells assessed as reduction in JC-1 aggregates by measuring decrease in red fluorescence at 1 uM by flow cytometry analysis (reference value: 24.7%); type: cell membranes; design: scale not given: the % may be the effect or the level left
[10] = Apparent volume of distribution in Sprague-Dawley rat at 1 mg/kg, iv by LC-MS/MS analysis; type: ADME, organism-based; conditions: in vivo, read-out: Vz
MCF7 [11] = assay: Induction of apoptosis in human MCF7 cells assessed as early apoptotic cells at 2 uM incubated for 48 hrs by Annexin V/FITC and PI staining based flow cytometry analysis (reference value: 1.1%); type: functional
4T1 [12] = assay: Antitumor activity against mouse 4T1 cells implanted in female BALB/c mouse model assessed as tumor necrosis at 25 to 50 mg/kg, po qd measured for 18 days by H and E staining based analysis; type: functional, organism-based; conditions: dose 25-50 mg/kg, time 18.0 day
MCF7 [13] = assay: Upregulation of E-cadherin expression in human MCF7 cells at 0.5 to 2 uM; type: functional, cell-based; conditions: dose 0.5-2 µM
4T1 [14] = assay: Antitumor activity against mouse 4T1 cells implanted in female BALB/c mouse model assessed as tumor growth inhibition at 25 mg/kg, po qd measured for 18 days relative to control; type: functional; conditions: 4T1, 432 h, time 18 day, read-out: TGI
[15] = molecular target: T1, Ribosomal protein S6 kinase alpha-1; assay: Inhibition of RSK1 (unknown origin) incubated for 60 mins by luminescence based ADP-Glo kinase assay
MCF7 [16] = assay: Induction of autophagy in human MCF7 cells assessed as increase in ATG5 level at 1 uM by Western blot analysis; type: functional, cell-based
4T1-Luc = assay: Anti-metastatic activity in mouse 4T1-Luc cells assessed as reduction in disruption of cell structure at 25 to 50 mg/kg, po measured after 20 days by H and E staining based analysis; type: functional, organism-based; conditions: dose 25-50 mg/kg, time 20.0 day
[17] = Toxicity in female BALB/c mouse assessed as effect on tumor at 25 to 50 mg/kg, po qd measured after 18 days by H and E staining based analysis; type: organism-based; conditions: in vivo, 432 h, dose 25-50 mg/kg, time 18 day
[18] = molecular target: Macrophage colony-stimulating factor 1 receptor (Homo sapiens) (UniProt P07333); assay: Inhibition of human FMS at 10000 nM by DiscoverX KINOMEscan assay relative to control
Chain of Macrophage colony-stimulating factor 1 receptor (Homo sapiens) (P07333 whole entry): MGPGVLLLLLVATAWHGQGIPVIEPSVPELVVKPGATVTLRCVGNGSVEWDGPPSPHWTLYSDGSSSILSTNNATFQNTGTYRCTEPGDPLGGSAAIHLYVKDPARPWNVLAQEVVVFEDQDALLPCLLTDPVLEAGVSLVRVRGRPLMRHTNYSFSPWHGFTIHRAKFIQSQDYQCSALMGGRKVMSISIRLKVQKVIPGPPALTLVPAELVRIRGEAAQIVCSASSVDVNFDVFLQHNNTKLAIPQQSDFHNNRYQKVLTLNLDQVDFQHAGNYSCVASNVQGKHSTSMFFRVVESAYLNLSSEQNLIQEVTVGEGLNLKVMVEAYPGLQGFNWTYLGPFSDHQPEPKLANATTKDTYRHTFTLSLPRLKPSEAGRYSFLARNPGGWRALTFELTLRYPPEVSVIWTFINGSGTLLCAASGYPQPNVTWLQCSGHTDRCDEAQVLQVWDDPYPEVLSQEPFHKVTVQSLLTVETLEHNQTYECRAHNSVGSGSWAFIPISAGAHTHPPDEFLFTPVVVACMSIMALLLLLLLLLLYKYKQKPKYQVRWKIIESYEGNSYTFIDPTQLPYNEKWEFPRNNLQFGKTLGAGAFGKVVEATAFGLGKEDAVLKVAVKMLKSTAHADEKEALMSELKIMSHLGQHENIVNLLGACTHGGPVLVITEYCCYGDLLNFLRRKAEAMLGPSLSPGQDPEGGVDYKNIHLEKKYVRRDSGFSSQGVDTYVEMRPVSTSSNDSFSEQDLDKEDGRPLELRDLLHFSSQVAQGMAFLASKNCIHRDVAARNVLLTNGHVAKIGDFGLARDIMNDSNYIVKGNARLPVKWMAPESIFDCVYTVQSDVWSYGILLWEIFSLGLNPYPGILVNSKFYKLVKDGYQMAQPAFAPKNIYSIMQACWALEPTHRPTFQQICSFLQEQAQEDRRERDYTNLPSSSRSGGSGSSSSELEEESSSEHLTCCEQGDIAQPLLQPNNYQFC

A-375 = assay: Antiproliferative activity against human A-375 cells expressing B-Raf V600E mutant; type: functional, cell-based
4T1 [19] = assay: Antitumor activity against mouse 4T1 cells implanted in female BALB/c mouse model assessed as reduction in tumor weight at 50 mg/kg, po qd measured for 18 days in presence of chloroquine; type: functional, organism-based; conditions: time 18.0 day
MCF7 [20] = assay: Downregulation of c-Myc phosphorylation expression in human MCF7 cells at 0.5 to 2 uM measured after 30 mins to 4 hrs by Western blot analysis; type: functional, cell-based; conditions: dose 0.5-2 µM, time 30-240 min
[21] = Half life in Sprague-Dawley rat at 1 mg/kg, iv by LC-MS/MS analysis; type: ADME, organism-based; conditions: in vivo
MCF7 [22] = assay: Induction of autophagy in human MCF7 cells harbouring ATG5 knockout assessed as increase in LC3B expression at 1 uM incubated for 48 hrs by Western blot analysis; type: functional, cell-based
[23] = Toxicity in female BALB/c mouse assessed as change in body weight at 50 mg/kg, po qd measured after 18 days in presence of chloroquine; type: organism-based; conditions: in vivo, 432 h, time 18 day
MCF7 [24] = assay: Inhibition of cell invasion in human MCF7 cells at incubated for 48 hrs by crystal violet staining based assay; type: functional; conditions: dose 0.5-2 µM
[25] = Toxicity in female BALB/c mouse assessed as effect on heart at 25 to 50 mg/kg, po qd measured after 18 days by H and E staining based analysis; type: organism-based; conditions: in vivo, 432 h, dose 25-50 mg/kg, time 18 day
[26] = Toxicity in female BALB/c mouse assessed as change in body weight at 25 to 50 mg/kg, po qd measured after 18 days; type: organism-based; conditions: in vivo, 432 h, dose 25-50 mg/kg, time 18 day
MCF7 [27] = assay: Induction of autophagy in human MCF7 cells assessed as increase in Beclin-1 level at 1 uM by Western blot analysis; type: functional, cell-based
Mitochondrial membrane [28] = assay: Induction of mitochondrial membrane potential loss in human MCF7 cells assessed as reduction in JC-1 aggregates by measuring decrease in red fluorescence at 0.5 uM by flow cytometry analysis (reference value: 24.7%); type: cell membranes; design: scale not given: the % may be the effect or the level left
MCF7 [29] = assay: Induction of autophagic flux in human MCF7 cells assessed as colocalization of LC3B at 1 uM incubated for 48 hrs in presence of chloroquine by immunofluorescence analysis; type: functional, cell-based
Mitochondrial membrane [30] = assay: Induction of mitochondrial membrane potential loss in human MCF7 cells assessed as increase in JC-1 monomers by measuring increase in green fluorescence at 2 uM by flow cytometry analysis (reference value: 38.0%); type: cell membranes
MCF7 [31] = assay: Downregulation of N-cadherin expression in human MCF7 cells at 0.5 to 2 uM; type: functional, cell-based; conditions: dose 0.5-2 µM
MCF7 [32] = assay: Induction of autophagy in human MCF7 cells assessed as upregulation of beclin1 expression incubated for 48 hrs by Western blotting analysis; type: functional, cell-based; conditions: dose 0.5-2 µM

For `O=C(Nc1cc(C(F)(F)F)cc(C(F)(F)F)c1)N[C@@H](Cc1ccccc1)Cn1c[n+](Cc2ccc3ccccc3c2)c2ccccc21.[Br-]`, the Activity [1] was “Non-toxic”, the Activity [2] was “Active” and the Activity (4T1 [3]) was “Active”. The inhibition [4] was 8%, the Activity (MCF7 [5]) was “Dose-dependent-effect” and the Activity (4T1 [6]) was “Dose-dependent-effect”. For the same compound, the Activity [7] was “Non-toxic”, the AUC(0-inf) [8] was 1100 ng·h/mL and the Activity (Mitochondrial membrane [9]) was 9.86%. For the same compound, the Vd [10] was 4.41 L/kg, the Activity (MCF7 [11]) was 12.9% and the Activity (4T1 [12]) was “Active”. For the same compound, the Activity (MCF7 [13]) was “Active”, the inhibition in vivo at 25 mg/kg (4T1 [14]) was 40.7% and the IC50 [15] was 674 nM. For the same compound, the Activity (MCF7 [16]) was “Active”, the Activity (4T1-Luc) was “Active” and the Activity [17] was “Non-toxic”. The inhibition [18] was 19%, the IC50 (A-375) was 750 nM and the Activity (4T1 [19]) was “Active”. For the same compound, the Activity (MCF7 [20]) was “Active”, the half-life [21] was 3.15 h and the Activity (MCF7 [22]) was “inactive”. The Activity [23] was “Non-toxic”, the inhibition (MCF7 [24]) was “Dose-dependent-effect” and the Activity [25] was “Non-toxic”. For the same compound, the Activity [26] was “Non-toxic”, the Activity (MCF7 [27]) was “Active” and the Activity (Mitochondrial membrane [28]) was 17.2%. The Activity (MCF7 [29]) was “Active”, the Activity (Mitochondrial membrane [30]) was 52.4% and the Activity (MCF7 [31]) was “Active”. The Activity (MCF7 [32]) was “Dose-dependent-effect”.
